The values below are quoted from earlier work in patent US9974767B2, “Statins in the treatment of muscular dystrophies and myopathies” (University of Washington, priority 2014, dated 2018).

For the series the following is noted: food intake; cited from earlier work.

The structures appear in SMILES notation.

In the case of `CC(C)c1nc(N(C)S(C)(=O)=O)nc(-c2ccc(F)cc2)c1/C=C/[C@@H](O)C[C@@H](O)CC(=O)O` [rosuvastatin], the “absorption when consumed with food” value is listed as “not affected”. Take `CC(C)n1c(/C=C/C(O)CC(O)CC(=O)O)c(-c2ccc(F)cc2)c2ccccc21` (centres unmarked) [fluvastatin]: the “absorption when consumed with food” value was “reduced absorption”. Consider `COCc1c(C(C)C)nc(C(C)C)c(/C=C/[C@@H](O)C[C@@H](O)CC(=O)O)c1-c1ccc(F)cc1` [cerivastatin], for which the “absorption when consumed with food” value was “not affected”. Take `CC[C@H](C)C(=O)O[C@H]1C[C@H](O)C=C2C=C[C@H](C)[C@H](CC[C@@H](O)C[C@@H](O)CC(=O)O)[C@H]21` [pravastatin]: the “absorption when consumed with food” value is “reduced absorption”. For the compound `CC[C@H](C)C(=O)O[C@H]1C[C@@H](C)C=C2C=C[C@H](C)[C@H](CC[C@@H]3C[C@@H](O)CC(=O)O3)[C@H]21` [lovastatin], the “absorption when consumed with food” value is on record as “more efficiently absorbed”.
